Among the test systems are PC-3 prostate; MALME-3M melanoma; SF-295 CNS; NCI-H23 lung; A498 renal; NCI-H460 lung; HCC-2998 colon; RXF 393 renal; MDA-MB-435; LOX IMVI melanoma.
What all share (test): inhibition of tumour cell growth, NCI panel, 48 h

Where “and” joins values, the source holds several entries; their conditions need not be identical. Identical values can stand only once.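 Cells were grown in 96-well plates and exposed to each compound for 48 hours at five concentrations; endpoints were interpolated linearly between bracketing concentrations, or set to the highest concentration if not reached. Abbreviation: GI50, concentration required for 50% inhibition of growth. At the TGI there is no net growth.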

For `OCC1SC(n2cnc3cncnc32)C(O)C1O` (stereo not given), the GI50 in the test on PC-3 prostate, with MALME-3M melanoma, in the test with SF-295 CNS, in the test on NCI-H23 lung, in the test with A498 renal and with NCI-H460 lung was more than 100 µM in each case. Besides, the GI50 with HCC-2998 colon, in the test with RXF 393 renal, in the test on MDA-MB-435 and with LOX IMVI melanoma was more than 100 µM throughout. Moreover, the TGI in the test with PC-3 prostate, in the test with MALME-3M melanoma, in the test on SF-295 CNS, in the test on NCI-H23 lung, in the test on A498 renal and in the test on NCI-H460 lung was more than 100 µM throughout. The TGI in the test with HCC-2998 colon, with RXF 393 renal, in the test with MDA-MB-435 and in the test on LOX IMVI melanoma was more than 100 µM throughout.
Turning to `COc1ccc(C(CC(=O)c2ccccc2)C(C(=O)c2ccccc2)C(c2ccc(OC)cc2)C2C(=O)NC(=O)NC2=O)cc1` (stereo not given), the GI50 in the test with PC-3 prostate is 7.31 µM; in the test with MALME-3M melanoma, 33.1 µM; in the test on SF-295 CNS, 23.2 µM; in the test on NCI-H23 lung it was 37.3 µM; in the test with A498 renal it was 11 µM; in the test with NCI-H460 lung, 7.14 µM. The GI50 with HCC-2998 colon is 6.83 µM; in the test with RXF 393 renal, 22.6 µM; in the test on MDA-MB-435, 19.6 µM; in the test on LOX IMVI melanoma, 9.38 µM. Besides, the TGI with PC-3 prostate is more than 100 µM; in the test on MALME-3M melanoma, more than 100 µM; in the test with SF-295 CNS, more than 100 µM; with NCI-H23 lung, more than 100 µM; in the test on A498 renal, 43.5 µM; in the test with NCI-H460 lung it was more than 100 µM. The TGI in the test on HCC-2998 colon was 28.5 µM; with RXF 393 renal, more than 100 µM; in the test with MDA-MB-435, more than 100 µM; in the test on LOX IMVI melanoma, more than 100 µM.
On to `O=C(Cn1ccnc1[N+](=O)[O-])N(CCO)CCO`, for which the TGI in the test on PC-3 prostate is more than 250 µM; with MALME-3M melanoma it was 224 µM and > 1250 µM; with SF-295 CNS, more than 753 µM; in the test with NCI-H23 lung, more than 1250 µM; in the test on A498 renal it was more than 1250 µM; in the test on NCI-H460 lung it was more than 1250 µM. The TGI in the test with HCC-2998 colon is more than 250 µM; in the test with RXF 393 renal, more than 1250 µM; in the test on MDA-MB-435, more than 250 µM; in the test with LOX IMVI melanoma, more than 1250 µM. The GI50 with MALME-3M melanoma is more than 1250 µM; with SF-295 CNS, more than 185 µM; in the test on NCI-H23 lung, more than 1250 µM; with A498 renal it was more than 250 µM; in the test on NCI-H460 lung it was more than 250 µM; in the test on RXF 393 renal, more than 1250 µM. The GI50 in the test with LOX IMVI melanoma was more than 250 µM.
As to `C=CC1CC12C(=O)C1OC2(C)C2C(=O)c3ccccc3C(=O)C12` (stereo not given), the GI50 with PC-3 prostate was 54.7 µM; with MALME-3M melanoma it was 21.3 µM; in the test on SF-295 CNS, 23.6 µM; in the test on NCI-H23 lung, 39.4 µM; in the test with A498 renal it was more than 100 µM; with NCI-H460 lung, more than 58.3 µM. Further, the GI50 in the test with HCC-2998 colon was more than 100 µM; with RXF 393 renal, 35.2 µM; in the test with MDA-MB-435 it was more than 40.1 µM; with LOX IMVI melanoma it was 12.7 µM. The TGI in the test on PC-3 prostate is more than 100 µM; with MALME-3M melanoma, 59.1 µM; in the test on SF-295 CNS it was 59.8 µM; in the test on NCI-H23 lung, more than 59.8 µM; in the test with A498 renal it was more than 100 µM; in the test with NCI-H460 lung, more than 100 µM. The TGI in the test with HCC-2998 colon was more than 100 µM; in the test with RXF 393 renal it was more than 100 µM; in the test with MDA-MB-435, more than 54.4 µM; with LOX IMVI melanoma, 68.7 µM.
Regarding `Cn1cc(-c2cc3c(Nc4ccc(CC(=O)Nc5cc(C(C)(C)C)on5)cc4)ncnc3[nH]2)cn1`, the GI50 is 1.59 µM and 0.612 µM in the test with PC-3 prostate; 0.615 µM and 0.354 µM in the test with MALME-3M melanoma; 1.64 µM and 1.32 µM in the test on SF-295 CNS; 0.811 µM and 0.449 µM with NCI-H23 lung; 0.692 µM and 1.07 µM with A498 renal; 1.04 µM and 1.26 µM in the test with NCI-H460 lung. In addition, the GI50 with HCC-2998 colon is 1.34 µM and 0.652 µM; in the test with RXF 393 renal, 0.723 µM and 0.461 µM; in the test with MDA-MB-435, 0.845 µM and 0.944 µM; in the test with LOX IMVI melanoma it was 0.87 µM and 0.548 µM. Further, the TGI in the test on PC-3 prostate was 11.3 µM and 3.58 µM; in the test on MALME-3M melanoma, 2.36 µM and 1.75 µM; in the test on SF-295 CNS it was 6.21 µM and 6.2 µM; in the test on NCI-H23 lung, 3.49 µM and 2.51 µM; in the test with A498 renal, 1.81 µM and 3.03 µM; in the test on NCI-H460 lung, 3.65 µM and 6.22 µM. The TGI is 7.5 µM and 4.82 µM in the test with HCC-2998 colon; 1.88 µM and 1.48 µM in the test with RXF 393 renal; 2.95 µM and 4.29 µM in the test with MDA-MB-435; 6.31 µM and 3.63 µM in the test with LOX IMVI melanoma.
With `O=C(c1ccccc1)c1ccc(-c2ccc(O)cc2)cc1`, the GI50 was 9.19 µM in the test with PC-3 prostate; 0.803 µM in the test with MALME-3M melanoma; 2.43 µM with SF-295 CNS; 6.16 µM in the test with NCI-H23 lung; 13 µM with A498 renal; 4.2 µM in the test with NCI-H460 lung. Besides, the GI50 in the test with HCC-2998 colon is 15.2 µM; with RXF 393 renal it was 7.93 µM; with MDA-MB-435 it was 0.328 µM; in the test on LOX IMVI melanoma, 11.1 µM. In addition, the TGI was 58 µM in the test on PC-3 prostate; 34.9 µM in the test with MALME-3M melanoma; 10.5 µM in the test with SF-295 CNS; 42.7 µM in the test with NCI-H23 lung; more than 58.9 µM in the test on A498 renal; 39.3 µM in the test with NCI-H460 lung. Further, the TGI with HCC-2998 colon turned out to be 43.9 µM; with RXF 393 renal it was 33.2 µM; in the test with MDA-MB-435, 1.55 µM; in the test with LOX IMVI melanoma, 28.8 µM.
Turning to `COc1ccc(-c2nc(-c3nc4ccc(F)cc4[nH]3)cc3c2[nH]c2ccccc23)cc1`, the GI50 with PC-3 prostate is 1.69 µM; in the test on MALME-3M melanoma, 2.33 µM; in the test on NCI-H23 lung it was 3.01 µM; in the test on A498 renal it was 1.92 µM; with NCI-H460 lung it was 1.98 µM; in the test with HCC-2998 colon, 3.71 µM. Besides, the GI50 was 1.72 µM with RXF 393 renal, 2.58 µM in the test on MDA-MB-435 and 2.22 µM in the test on LOX IMVI melanoma. Also, the TGI in the test on PC-3 prostate came out at 5.71 µM; in the test on MALME-3M melanoma, 8.99 µM; with NCI-H23 lung, 10.9 µM; in the test on A498 renal it was 9.7 µM; in the test with NCI-H460 lung it was 5.81 µM; in the test with HCC-2998 colon it was 26.2 µM. In addition, the TGI was found to be 4.55 µM in the test on RXF 393 renal, 13.4 µM in the test with MDA-MB-435 and 5.31 µM with LOX IMVI melanoma.

The record behind these values is PubChem BioAssay (NCI).
